Reference: patent US20240010635A1, “NOVEL INDIRUBIN DERIVATIVES HAVING HETEROBICYCLIC MOIETIES AND THE USE THEREOF” (priority 2022, published 2024)

Key:
Type in all cases: cell-based
Molm-14 = test: Cell proliferation inhibition in AML cell line Molm-14 (Alamar Blue); settings: Homo sapiens, Molm-14, 72 hours, read-out: Cell proliferation inhibitory activity (GI50) Molm-14
Source text: (§1) Cell proliferation inhibition experiments on acute myeloid leukemia (AML) cell lines tested FLT3 inhibitory activity using MV4-11, Molm-13, and Molm-14 cells, which are FLT3-ITD-expressed AML cell lines. The origin of all cell lines is human-derived cell lines, and the place of purchase and culture conditions of each cell line are as follows.
(§2) MV4-11 cells were purchased form the American Type Culture Collection (ATCC, Rockville, MD, USA, cat #CRL-9591), Molm-13 (DSMZ, cat #ACC554), Molm-14 (DSMZ, cat #ACC777), and then cultured in RPMI 1640 medium (Corning Co. 10-040-CV) supplemented with 10% fetal bovine serum, 1% penicillin/streptomycin and 4 mM L-glutamine (Life Technology, GrandIsland, NY).
(§3) Cell viability was evaluated by Resazurin redox-based analysis method with Alamar Blue Assay Kit (Invitrogen, USA). Specifically, for MV4-11, Molm-13 and Molm-14 cells, 8000 cells were plated on 384-well plates in 45 μl of medium. Compounds were treated with dimethyl sulfoxide (DMSO) as a negative control group. After 3 days (72 hours) of compound addition, 5 μl of Alamar Blue kit reagent was added to each well of 384-well plate and incubated at 37° C. for 2 hours in a humidified CO2 incubator. After incubation, fluorescence density (Flu) was measured at a wavelength of 544 nm and 590 nm using SpectraMax iD3 Multi Mode Microplate Reader (Molecular Devices, ID3-STD). GI50 was calculated by nonlinear regression using Prism version 5.01 (GraphPad, LaJolla, CA, USA).

Molm-13 = test: Cell proliferation inhibition in AML cell line Molm-13 (Alamar Blue); settings: Homo sapiens, Molm-13, 72 hours, read-out: Cell proliferation inhibitory activity (GI50) Molm-13
Source text: as §1, §2, §3

MV4-11 = test: Cell proliferation inhibition in AML cell line MV4-11 (Alamar Blue); settings: Homo sapiens, MV4-11, 72 hours, read-out: Cell proliferation inhibitory activity (GI50) MV4-11
Source text: as §1, §2, §3

| Structure (SMILES) | GI50 (Molm-14) | GI50 (Molm-13) | GI50 (MV4-11) |
| --- | --- | --- | --- |
| O=C1Nc2cc(Br)ccc2/C1=C1/Nc2ccccc2/C1=N\OCCN1CCNCC1 [Comparative Example 1, reference compound] | 9.36 nM | 11.2 nM | 20 nM |
| O=C1Nc2ccc(Br)cc2/C1=C1/Nc2ccccc2/C1=N\OCCN1CCNCC1 [Comparative Example 2, reference compound] | 4.08 nM | 4.08 nM | 7 nM |
| O=C1Nc2ccc(F)cc2/C1=C1/Nc2ccccc2/C1=N\OCCN1CCNCC1 [Comparative Example 3, reference compound] | 1.6 nM | 2.53 nM | 3.7 nM |
